Experimental data as given in BigSolDB 2.1.

N[C@H](Cc1c[nH]cn1)C(=O)O
solubility (mole fraction)
Conditions | 293.15 K | 298.15 K | 303.15 K | 308.15 K | 313.15 K | 318.15 K | 323.15 K | 328.15 K | 333.15 K
in 1,4-dioxane | 0.0072 | 0.00864 | 0.0102 | 0.0117 | 0.0135 | 0.0152 | 0.0179 | 0.0206 | 0.0245
in DMF | 0.154 | 0.176 | 0.201 | 0.228 | 0.258 | 0.29 | 0.326 | 0.365 | 0.417
in DMSO | 0.0171 | 0.0199 | 0.0232 | 0.0267 | 0.0308 | 0.0353 | 0.0403 | 0.0459 | 0.0543
in NMP | 0.0656 | 0.0752 | 0.0859 | 0.0977 | 0.111 | 0.127 | 0.14 | 0.157 | 0.178
in cyclohexane | 0.000445 | 0.000565 | 0.000714 | 0.000897 | 0.00111 | 0.00138 | 0.00169 | 0.00216 | 0.00252
in ethanol | 0.000253 | 0.000329 | 0.000433 | 0.000557 | 0.000724 | 0.000915 | 0.0012 | 0.00145 | 0.00181
in ethylene glycol | 0.00215 | 0.00263 | 0.0032 | 0.00385 | 0.00459 | 0.00559 | 0.00654 | 0.00774 | 0.00944
in isobutanol | 0.000546 | 0.000681 | 0.00085 | 0.00105 | 0.00129 | 0.00156 | 0.00201 | 0.0024 | 0.00286
in isopropanol | 0.000369 | 0.00047 | 0.000598 | 0.000759 | 0.000945 | 0.00117 | 0.00146 | 0.00177 | 0.00228
in methanol | 0.00019 | 0.000252 | 0.00033 | 0.000431 | 0.000562 | 0.000712 | 0.000904 | 0.00119 | 0.00156
in n-butanol | 0.0007 | 0.000865 | 0.00105 | 0.00128 | 0.00155 | 0.00187 | 0.00224 | 0.00263 | 0.0033
in n-propanol | 0.000484 | 0.00061 | 0.00076 | 0.000941 | 0.00115 | 0.00142 | 0.00172 | 0.00208 | 0.00263
in water | 0.00458 | 0.00506 | 0.00556 | 0.00619 | 0.00686 | 0.00765 | 0.00878 | 0.00971 | 0.0118
